Consider four compounds from patent publication US10208056B2, “Condensed tricyclic compounds as protein kinase inhibitors” (FUNDACIÓN DEL SECTOR PÚBLICO ESTATAL CENTRO NACIONAL DE …, priority 2015, dated 2019).

The structures appear in SMILES notation. Like-named read-outs stand apart in the source and are kept apart here. Bounds are passed on as bounds.

In one test the test system is SW620. Description: In vitro cell proliferation assay (CellTiter-Glo), SW620. The test is classed as cell-based, human. The conditions noted are these: Homo sapiens, SW-620, growth inhibition, read-out: GI50 SW620. (In general: ATP-based viability assays read luminescence as a measure of living cells.)
The subject of the next test is Molm13. The test can be described thus: In vitro cell proliferation assay (CellTiter-Glo), Molm13. The test is classed as cell-based. Conditions: Homo sapiens, MOLM-13, growth inhibition, read-out: GI50 Molm13.
The next test has as its system MV4:11. Description: In vitro cell proliferation assay (CellTiter-Glo), MV4:11. The test is classed as cell-based. The conditions noted are these: Homo sapiens, MV4-11, growth inhibition, read-out: GI50 MV4:11.
The target in the next test is CDK8/Cyclin C (Homo sapiens (Human), UniProt P49336). The test can be described thus: CDK8/Cyclin C binding assay (LanthaScreen Eu-Kinase Binding Assay). Conditions: binding assay. The protocol: The enzyme has been purchase from Invitrogen (PV4402) as a dimer of full-length His-tagged recombinant human proteins.
Assays were performed in 384-well plates. The final read out was generated using an EnVision plate reader (Perkin-Elmer).
(In general: TR-FRET usually uses a lanthanide donor and a delayed reading to cut background.)

The next test deals with Haspin kinase (Homo sapiens (Human), UniProt Q8TF76). The test can be described thus: Haspin kinase assay (ADP-Glo). The test is classed as biochemical. The conditions noted are these: ATP 150 μM. The essentials: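 Compounds in 1:3 serial dilutions (1% DMSO final) were incubated 60 min at 30 °C with 20 nM recombinant GST-Haspin kinase domain and 150 μM ATP, without substrate, in pH 7.4 HEPES/MgCl2 buffer. ADP formed was read by luciferase luminescence and normalized to uninhibited enzyme to give % inhibition.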
In general terms: ADP-Glo first removes unused ATP, then detects ADP through luciferase.

The target in another test is CDK19/Cyclin C (Homo sapiens (Human), UniProt Q9BWU1). Description: CDK19/Cyclin C binding assay (LanthaScreen Eu-Kinase Binding Assay). The conditions noted are these: read-out: CDK19-CYCC IC50. The essentials:
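LanthaScreen TR-FRET tracer-displacement format with 2 nM Cdk19-Cyclin C, 20 nM tracer and 2 nM Eu-anti-GST antibody. The buffer was 50 mM HEPES pH 7.5, 10 mM MgCl2, 1 mM EGTA, 0.01% Brij-35, with 1% DMSO final. Compounds were tested as 1:3 serial dilutions and incubated for 60 min at 25 °C.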

Sequence of CDK19/Cyclin C (Q9BWU1 whole entry): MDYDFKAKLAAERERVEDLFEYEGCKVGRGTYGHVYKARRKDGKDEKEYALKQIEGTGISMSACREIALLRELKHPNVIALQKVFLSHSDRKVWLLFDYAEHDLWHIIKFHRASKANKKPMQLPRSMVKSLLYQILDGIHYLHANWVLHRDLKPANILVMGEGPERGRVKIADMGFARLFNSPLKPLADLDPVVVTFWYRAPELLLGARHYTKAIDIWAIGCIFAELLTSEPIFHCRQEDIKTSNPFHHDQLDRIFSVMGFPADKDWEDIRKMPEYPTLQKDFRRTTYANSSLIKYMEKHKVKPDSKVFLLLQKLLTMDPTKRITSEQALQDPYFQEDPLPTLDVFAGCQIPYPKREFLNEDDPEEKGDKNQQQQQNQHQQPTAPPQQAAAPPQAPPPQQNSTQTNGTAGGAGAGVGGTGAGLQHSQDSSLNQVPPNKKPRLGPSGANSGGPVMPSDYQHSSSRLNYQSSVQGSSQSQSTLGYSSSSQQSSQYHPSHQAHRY
Sequence of CDK19/Cyclin C (P24863 whole entry partner): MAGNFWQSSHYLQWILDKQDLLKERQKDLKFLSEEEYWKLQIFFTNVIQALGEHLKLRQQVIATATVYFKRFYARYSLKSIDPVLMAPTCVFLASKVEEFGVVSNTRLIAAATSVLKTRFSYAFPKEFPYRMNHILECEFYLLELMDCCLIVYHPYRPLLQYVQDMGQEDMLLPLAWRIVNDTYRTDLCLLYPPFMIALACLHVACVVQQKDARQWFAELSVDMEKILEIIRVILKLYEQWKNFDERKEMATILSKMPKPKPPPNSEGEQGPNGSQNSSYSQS
Sequence of CDK8/Cyclin C (P49336 whole entry): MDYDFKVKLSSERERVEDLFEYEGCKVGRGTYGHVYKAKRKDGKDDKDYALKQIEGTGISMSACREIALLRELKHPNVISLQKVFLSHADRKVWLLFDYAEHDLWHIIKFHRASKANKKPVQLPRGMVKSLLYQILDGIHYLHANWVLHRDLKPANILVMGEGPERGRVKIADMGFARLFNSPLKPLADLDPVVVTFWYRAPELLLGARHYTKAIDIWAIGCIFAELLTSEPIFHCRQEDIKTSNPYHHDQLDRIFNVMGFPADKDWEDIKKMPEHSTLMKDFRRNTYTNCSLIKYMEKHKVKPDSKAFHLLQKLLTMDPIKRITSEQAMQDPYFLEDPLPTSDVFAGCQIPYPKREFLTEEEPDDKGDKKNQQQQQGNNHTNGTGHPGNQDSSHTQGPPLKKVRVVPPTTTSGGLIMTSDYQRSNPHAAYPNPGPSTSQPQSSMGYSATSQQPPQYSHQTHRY
Sequence of CDK8/Cyclin C (P24863 whole entry partner): as the sequence (P24863 whole entry partner) above
Sequence of Haspin kinase (Q8TF76 484-798): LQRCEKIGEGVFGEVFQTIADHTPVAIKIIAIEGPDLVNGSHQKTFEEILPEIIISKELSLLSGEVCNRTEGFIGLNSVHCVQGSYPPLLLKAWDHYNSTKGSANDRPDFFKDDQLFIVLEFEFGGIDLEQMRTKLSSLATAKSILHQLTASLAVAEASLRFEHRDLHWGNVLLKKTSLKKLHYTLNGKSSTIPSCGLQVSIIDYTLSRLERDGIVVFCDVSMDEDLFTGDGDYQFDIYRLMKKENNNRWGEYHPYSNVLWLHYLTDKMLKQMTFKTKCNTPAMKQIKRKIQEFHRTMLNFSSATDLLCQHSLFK

As usually defined, the GI50 is the concentration that inhibits growth by half. Usually IC50 stands for the concentration that gives 50% inhibition. With `NC(=O)c1cc2c([nH]1)-c1ccncc1O[C@H]2C1CCOCC1` (single isomer, unassigned) [Example 72], the GI50 is 10 to 100 µM in the test with SW620 (semiquantitative), 1 to 10 µM in the test on Molm13 (semiquantitative) and 1 to 10 µM with MV4:11 (semiquantitative). For the same compound, the IC50 at CDK8/Cyclin C was 0.00446 µM; on Haspin kinase it was 0.406 µM; on CDK19/Cyclin C, 0.0142 µM.
As for `CCn1c(C(N)=O)cc2c1-c1ccncc1OC2(C)C` [Example 43], the GI50 in the test on SW620 (quantitative) amounted to 3.39 µM; in the test with Molm13 (quantitative), 0.349 µM; in the test with MV4:11 (quantitative) it was 0.115 µM. Also, the half-maximal inhibitory concentration (IC50) at CDK8/Cyclin C worked out at 0.00141 µM; on Haspin kinase, 0.0368 µM; on CDK19/Cyclin C, 0.00109 µM.
As to `CC1(C)Oc2cnccc2-c2c1cc(C(N)=O)n2CCF` [Example 52], the GI50 in the test on SW620 (semiquantitative) is 1 to 10 µM; in the test on Molm13 (semiquantitative), under 1 µM; in the test on MV4:11 (semiquantitative) it was under 1 µM. Further, the half-maximal inhibitory concentration (IC50) on CDK8/Cyclin C came to 0.00141 µM; against Haspin kinase, 0.0224 µM; at CDK19/Cyclin C it was 0.00141 µM.
For `CCn1c(C(N)=O)c(-c2ccccc2OC)c2c1-c1ccncc1OC2(C)C` [Example 68], the GI50 with SW620 (semiquantitative) is 10 to 100 µM; in the test on Molm13 (semiquantitative), under 1 µM; in the test with MV4:11 (semiquantitative), under 1 µM. Moreover, the results for the half-inhibitory concentration (IC50) at CDK8/Cyclin C, against Haspin kinase and at CDK19/Cyclin C were 0.00323 µM, 0.354 µM and 0.0164 µM, respectively.
